Laboratory results reported in patent US9758527B2, “Cyclohexene derivative, preparation method therefor, and pharmaceutical composition for preventing or treating metabolic diseases, containing same as active ingredient” (HYUNDAI PHARM CO., LTD., priority 2014, dated 2017).
Where two headings read alike, the source gives them in different places.

Target: T1, G protein-coupled receptor 119 (GPR-119) (Mesocricetus auratus, UniProt A0A1U8CD06)
T1 construct: hamster-derived β-cells containing G protein-coupled receptor 119 (GPR-119), HIT-T15 cells; host or cells: HIT-T15 (hamster pancreatic β-cells)
T1 sequence (A0A1U8CD06 1-334): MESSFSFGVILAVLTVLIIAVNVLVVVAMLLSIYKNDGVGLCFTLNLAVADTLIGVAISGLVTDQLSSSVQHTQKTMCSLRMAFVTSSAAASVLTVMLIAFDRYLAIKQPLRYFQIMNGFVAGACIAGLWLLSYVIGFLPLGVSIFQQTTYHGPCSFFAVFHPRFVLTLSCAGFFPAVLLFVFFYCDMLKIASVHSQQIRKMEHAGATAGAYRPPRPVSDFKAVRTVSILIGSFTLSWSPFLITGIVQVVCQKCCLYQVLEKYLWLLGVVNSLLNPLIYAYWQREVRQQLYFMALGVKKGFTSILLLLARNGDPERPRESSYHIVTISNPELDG
Assay: Evaluation of cAMP activity in HIT-T15 cells (HTRF cAMP dynamic kit)
Assay type: cell-based, hamster
Conditions: cAMP activation
Method in brief: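 HIT-T15 cells, 60,000/well, treated next day with compound at six concentrations ([…]) for 1 h at 37° C. Lysate cAMP quantified by HTRF competitive immunoassay (D2-cAMP, cryptate anti-cAMP); activity taken as change in FRET signal relative to DMSO.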

[1] = 1 h at 37° C., six concentrations, read-out: EC50

| SMILES | EC50 [1] [nM] | EC50 (read-out: EC50 value) [nM] |
| --- | --- | --- |
| CC(C)c1noc(N2CCC(COc3ccc(C4=CCC(C(=O)N5CCN(C6CC6)CC5)CC4)cc3)CC2)n1 (stereo not drawn) [Example 89, (4-cyclopropylpiperazin-1-yl)(4-(4-((1-(3-isopropyl-1,2,4-oxadiazol-5-yl)piperidin-4-yl)methoxy)phenyl)cyclohex-3-enyl)methanone] | 21 | ≤ 50 |
| CC(C)(C)OC(=O)N1CCC(COc2ccc(C3=CCC(C(=O)N4CC[C@@H](F)C4)CC3)cn2)CC1 (stereo partly drawn) [Example 90, tert-butyl 4-((5-(4-((R)-3-fluoropyrrolidine-1-carbonyl)cyclohex-1-enyl)pyridin-2-yloxy)methyl)piperidine-1-carboxylate] | 24 | ≤ 50 |
| CC(C)(C)OC(=O)N1CCC(COc2ccc(C3=CCC(C(=O)N4CC[C@H](F)C4)CC3)cn2)CC1 (stereo partly drawn) [Example 91, tert-butyl 4-((5-(4-((S)-3-fluoropyrrolidine-1-carbonyl)cyclohex-1-enyl)pyridin-2-yloxy)methyl)piperidine-1-carboxylate] | 28 | ≤ 50 |
| CC(C)c1noc(N2CCC(COc3ccc(C4=CCC(C(=O)NCC(F)(F)F)CC4)cc3F)CC2)n1 (stereo not drawn) [Example 92, 4-(3-fluoro-4-((1-(3-isopropyl-1,2,4-oxadiazol-5-yl)piperidin-4-yl)methoxy)phenyl)-N-(2,2,2-trifluoroethyl)cyclohex-3-enecarboxamide] | 64 | – |
| CC(C)c1noc(N2CCC(COc3ccc(C4=CCC(C(=O)NCC(F)F)CC4)cc3F)CC2)n1 (stereo not drawn) [Example 93, N-(2,2-difluoroethyl)-4-(3-fluoro-4-((1-(3-isopropyl-1,2,4-oxadiazol-5-yl)piperidin-4-yl)methoxy)phenyl)cyclohex-3-enecarboxamide] | 50 | ≤ 50 |
| CC(C)c1noc(N2CCC(COc3ccc(C4=CCC(C(=O)NCCF)CC4)cc3F)CC2)n1 (stereo not drawn) [Example 94, 4-(3-fluoro-4-((1-(3-isopropyl-1,2,4-oxadiazol-5-yl)piperidin-4-yl)methoxy)phenyl)-N-(2-fluoroethyl)cyclohex-3-enecarboxamide] | 68 | – |
| CC(C)c1noc(N2CCC(COc3ccc(C4=CCC(C(=O)N5CC[C@H](F)C5)CC4)cc3F)CC2)n1 (stereo partly drawn) [Example 95, (4-(3-fluoro-4-((1-(3-isopropyl-1,2,4-oxadiazol-5-yl)piperidin-4-yl)methoxy)phenyl)cyclohex-3-enyl)((S)-3-fluoropyrrolidin-1-yl)methanone] | 16 | – |
| CC(C)c1noc(N2CCC(COc3ccc(C4=CCC(C(=O)N5CC[C@@H](F)C5)CC4)cc3F)CC2)n1 (stereo partly drawn) [Example 96, (4-(3-fluoro-4-((1-(3-isopropyl-1,2,4-oxadiazol-5-yl)piperidin-4-yl)methoxy)phenyl)cyclohex-3-enyl)((R)-3-fluoropyrrolidin-1-yl)methanone] | 27 | ≤ 50 |
| CC(C)c1noc(N2CCC(COc3ccc(C4=CCC(C(=O)N5CCOCC5)CC4)cc3F)CC2)n1 (stereo not drawn) [Example 97, (4-(3-fluoro-4-((1-(3-isopropyl-1,2,4-oxadiazol-5-yl)piperidin-4-yl)methoxy)phenyl)cyclohex-3-enyl)(morpholino)methanone] | 8.4 | ≤ 50 |
| CC(C)c1noc(N2CCC(COc3ccc(C4=CCC(C(=O)N5CCSCC5)CC4)cc3F)CC2)n1 (stereo not drawn) [Example 98, (4-(3-fluoro-4-((1-(3-isopropyl-1,2,4-oxadiazol-5-yl)piperidin-4-yl)methoxy)phenyl)cyclohex-3-enyl)(thiomorpholino)methanone] | 6.1 | ≤ 50 |
| CC(C)c1noc(N2CCC(COc3ccc(C4=CCC(C(=O)NCC(F)F)CC4)nc3)CC2)n1 (stereo not drawn) [Example 99, N-(2,2-difluoroethyl)-4-(5-((1-(3-isopropyl-1,2,4-oxadiazol-5-yl)piperidin-4-yl)methoxy)pyridin-2-yl)cyclohex-3-enecarboxamide] | 160 | – |
| CC(C)c1noc(N2CCC(COc3ccc(C4=CCC(C(=O)N5CCOCC5)CC4)nc3)CC2)n1 (stereo not drawn) [Example 100, (4-(5-((1-(3-isopropyl-1,2,4-oxadiazol-5-yl)piperidin-4-yl)methoxy)pyridin-2-yl)cyclohex-3-enyl)(morpholino)methanone] | 95 | – |
| CC(C)c1noc(N2CCC(COc3ccc(C4=CCC(C(=O)N5CC[C@@H](F)C5)CC4)nc3)CC2)n1 (stereo partly drawn) [Example 101, ((R)-3-fluoropyrrolidin-1-yl)(4-(5-((1-(3-isopropyl-1,2,4-oxadiazol-5-yl)piperidin-4-yl)methoxy)pyridin-2-yl)cyclohex-3-enyl)methanone] | 110 | – |
| CC(C)c1noc(N2CCC(COc3ccc(C4=CCC(C(=O)N5CC[C@H](F)C5)CC4)nc3)CC2)n1 (stereo partly drawn) [Example 102, ((S)-3-fluoropyrrolidin-1-yl)(4-(5-((1-(3-isopropyl-1,2,4-oxadiazol-5-yl)piperidin-4-yl)methoxy)pyridin-2-yl)cyclohex-3-enyl)methanone] | 52 | – |
| CCc1cnc(N2CCC(COc3ccc(C4=CCC(C(=O)NCC(F)(F)F)CC4)cc3)CC2)nc1 (stereo not drawn) [Example 103, 4-(4-((1-(5-ethylpyrimidin-2-yl)piperidin-4-yl)methoxy)phenyl)-N-(2,2,2-trifluoroethyl)cyclohex-3-enecarboxamide] | 75 | – |
| CCc1cnc(N2CCC(COc3ccc(C4=CCC(C(=O)NCCF)CC4)cc3)CC2)nc1 (stereo not drawn) [Example 104, 4-(4-((1-(5-ethylpyrimidin-2-yl)piperidin-4-yl)methoxy)phenyl)-N-(2-fluoroethyl)cyclohex-3-enecarboxamide] | 70 | – |
| CCc1cnc(N2CCC(COc3ccc(C4=CCC(C(=O)N5CCC[C@H]5C(N)=O)CC4)cc3)CC2)nc1 (stereo partly drawn) [Example 105, (2S)-1-(4-(4-((1-(5-ethylpyrimidin-2-yl)piperidin-4-yl)methoxy)phenyl)cyclohex-3-enecarbonyl)pyrrolidine-2-carboxamide] | 43 | ≤ 50 |
| CCc1cnc(N2CCC(COc3ccc(C4=CCC(C(=O)N5CCC[C@H]5C#N)CC4)cc3)CC2)nc1 (stereo partly drawn) [Example 106, (2S)-1-(4-(4-((1-(5-ethylpyrimidin-2-yl)piperidin-4-yl)methoxy)phenyl)cyclohex-3-enecarbonyl)pyrrolidine-2-carbonitrile] | 22 | ≤ 50 |
| CC(C)(C)OC(=O)N1CCC(COc2ccc(C3=CCC(C(=O)N4CCC[C@H]4C(N)=O)CC3)cc2F)CC1 (stereo partly drawn) [Example 107, tert-butyl 4-((4-(4-((S)-2-carbamoylpyrrolidine-1-carbonyl)cyclohex-1-enyl)-2-fluorophenoxy)methyl)piperidine-1-carboxylate] | 35 | ≤ 50 |
| CC(C)c1noc(N2CCC(COc3ccc(C4=CCC(C(=O)N5CCC[C@H]5C(N)=O)CC4)cc3F)CC2)n1 (stereo partly drawn) [Example 108, (2S)-1-(4-(3-fluoro-4-((1-(3-isopropyl-1,2,4-oxadiazol-5-yl)piperidin-4-yl)methoxy)phenyl)cyclohex-3-enecarbonyl)pyrrolidine-2-carboxamide] | 55 | – |
| COC(=O)CNC(=O)C1CC=C(c2ccc(OCC3CCN(c4nc(C(C)C)no4)CC3)c(F)c2)CC1 (stereo not drawn) [Example 109] | 190 | – |
| CCOC(=O)CCNC(=O)C1CC=C(c2ccc(OCC3CCN(c4nc(C(C)C)no4)CC3)c(F)c2)CC1 (stereo not drawn) [Example 110, ethyl 3-(4-(3-fluoro-4-((1-(3-isopropyl-1,2,4-oxadiazol-5-yl)piperidin-4-yl)methoxy)phenyl)cyclohex-3-enecarboxamido)propanoate] | 110 | – |
| CC(C)c1noc(N2CCC(COc3ccc(C4=CCC(C(=O)NCCC(=O)O)CC4)cc3F)CC2)n1 (stereo not drawn) [Example 111, 3-(4-(3-fluoro-4-((1-(3-isopropyl-1,2,4-oxadiazol-5-yl)piperidin-4-yl)methoxy)phenyl)cyclohex-3-enecarboxamido)propanoic acid] | 1500 | – |
| CC(C)c1noc(N2CCC(COc3ccc(C4=CCC(C(=O)NCC(=O)N5CCOCC5)CC4)cc3F)CC2)n1 (stereo not drawn) [Example 112, 4-(3-fluoro-4-((1-(3-isopropyl-1,2,4-oxadiazol-5-yl)piperidin-4-yl)methoxy)phenyl)-N-(2-morpholino-2-oxoethyl)cyclohex-3-enecarboxamide] | 70 | – |
| CC(C)c1noc(N2CCC(COc3ccc(C4=CCC(C(=O)NCCC(=O)N5CCOCC5)CC4)cc3F)CC2)n1 (stereo not drawn) [Example 113, 4-(3-fluoro-4-((1-(3-isopropyl-1,2,4-oxadiazol-5-yl)piperidin-4-yl)methoxy)phenyl)-N-(3-morpholino-3-oxopropyl)cyclohex-3-enecarboxamide] | 68 | – |
| CC(C)(C)OC(=O)N1CCC(COc2ccc(C3=CCC(C(=O)N4CCC[C@H]4C#N)CC3)cc2F)CC1 (stereo partly drawn) [Example 114, tert-butyl 4-((4-(4-((S)-2-cyanopyrrolidine-1-carbonyl)cyclohex-1-enyl)-2-fluorophenoxy)methyl)piperidine-1-carboxylate] | 14 | ≤ 50 |
| CC(C)c1noc(N2CCC(COc3ccc(C4=CCC(C(=O)N5CCC[C@H]5C#N)CC4)cc3F)CC2)n1 (stereo partly drawn) [Example 115, (2S)-1-(4-(3-fluoro-4-((1-(3-isopropyl-1,2,4-oxadiazol-5-yl)piperidin-4-yl)methoxy)phenyl)cyclohex-3-enecarbonyl)pyrrolidine-2-carbonitrile] | 15 | ≤ 50 |
